Common to all, as to assay: DTP human tumour cell line panel, 48 h
For assay [1], the system named is A549 NSCLC.
Assay [2] deals with CAKI-1 renal.
Assay [3] deals with KM12 colon.
The subject of assay [4] is MDA-MB-435.
In assay [5] the test system is SF-295 CNS.
Assay [6] deals with SK-MEL-2 melanoma.
Assay [7] relates to UO-31 renal.
For assay [8], the system named is EKVX NSCLC.

What is called GI50 is the concentration at which growth is held to half of that of the control. Usually TGI stands for the concentration at which net growth stops.

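Cultured in 96-well plates, cells were exposed to test compound for 48 hours across five concentrations. GI50 marks 50% less growth. TGI: total growth inhibition.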

On to `N#CCc1ncc(-c2ccc(C(F)(F)F)cc2)c(NC2CCCCCC2)n1`, for which the GI50 in assay [1], in assay [2], in assay [3], in assay [4], in assay [5] and in assay [6] was more than 10 µM in each case. For the same molecule, the GI50 in assay [7] was more than 10 µM. Besides, the TGI in assay [1], in assay [2], in assay [3], in assay [4], in assay [5] and in assay [6] was more than 10 µM in each case. This molecule also returned a TGI in assay [7] of more than 10 µM.

Turning to `O=C(CCl)N1c2ccccc2Sc2ccc3ccccc3c21`, the GI50 in assay [1] is 1.98 µM; in assay [2], 0.498 µM; in assay [3], 1.82 µM; in assay [4], 1.46 µM; in assay [5], 1.68 µM; in assay [6], 1.97 µM. In addition, the GI50 in assay [7] is 0.281 µM. For the same molecule, the TGI is 4.75 µM in assay [1]; 0.95 µM in assay [2]; 3.35 µM in assay [3]; 3.01 µM in assay [4]; 3.15 µM in assay [5]; 3.8 µM in assay [6]. The molecule also gave a TGI in assay [7] of 1.07 µM.

In the case of `Cc1cc(NS(=O)(=O)c2ccc(NC(=O)c3cccc4c(Nc5ccc(S(=O)(=O)N=C(N)N)cc5)c5ccccc5nc34)cc2)no1`, the TGI in assay [1], in assay [2], in assay [8], in assay [3], in assay [5] and in assay [7] was more than 100 µM in each case.

For the molecule `COc1cccc(Cc2c3cc(OC)ccc3cc[n+]2C)c1`, the TGI in assay [1], in assay [2], in assay [8], in assay [3], in assay [5] and in assay [6] was more than 100 µM throughout. The molecule further gave a TGI in assay [7] of more than 100 µM.

For the molecule `COc1ccc(-c2ccc(-c3ccc(-c4ccc(C(=N)N)cc4)s3)s2)cc1OC`, the GI50 in assay [2] was 15.1 µM; in assay [3] it was 0.749 µM; in assay [4], 5.32 µM; in assay [5] it was 21.2 µM; in assay [6], 19.7 µM; in assay [7], 14.4 µM. Also, the TGI worked out at 30.4 µM in assay [2]; 2.16 µM in assay [3]; 20.2 µM in assay [4]; 45.5 µM in assay [5]; 43.5 µM in assay [6]; 32.4 µM in assay [7].

As to `N#CC1=C(N)NC(=O)NC12Nc1ccccc1S2` (stereo unspecified), the GI50 in assay [1] is 4.27 µM; in assay [2], 30.1 µM; in assay [3] it was 26.5 µM; in assay [4], 31.7 µM; in assay [5], 26.4 µM; in assay [6], more than 44.4 µM. In addition, the GI50 in assay [7] is 36.2 µM. Also, the TGI is more than 40.4 µM in assay [1]; more than 72.6 µM in assay [2]; more than 68.4 µM in assay [3]; more than 88.4 µM in assay [4]; more than 65.7 µM in assay [5]; more than 64.2 µM in assay [6]. In addition, in assay [7], the TGI is more than 100 µM.

With `O=c1cc(-c2ccccc2)[nH]n1-c1nc2ccccc2[nH]1`, the GI50 is 4.46 µM in assay [1]; 3.42 µM in assay [2]; 5.28 µM in assay [3]; 5.07 µM in assay [4]; 2.92 µM in assay [5]; 9.32 µM in assay [6]. Besides, the GI50 in assay [7] is 5.68 µM. Also, the TGI in assay [1] was more than 100 µM; in assay [2], more than 100 µM; in assay [3] it was more than 100 µM; in assay [4] it was more than 100 µM; in assay [5] it was more than 100 µM; in assay [6], 66.8 µM. The molecule further registered a TGI in assay [7] of 67.6 µM.

`COc1ccc(C(=O)c2cc3c(OC)c(OC)c(OC)cc3[nH]2)cc1`: the GI50 in assay [1] is 5.77 µM; in assay [8], 5.14 µM; in assay [3] it was 2.36 µM; in assay [5] it was 6.72 µM; in assay [7] it was 6.19 µM. The TGI in assay [1], in assay [8], in assay [3], in assay [5] and in assay [7] was more than 100 µM throughout.

As for `O=C(Nc1ccccc1O)c1ccc(Oc2cccc(C(=O)Nc3ccccc3O)c2)cc1`, the GI50 in assay [1] was 2.91 µM; in assay [2], 1.91 µM; in assay [3], 3.17 µM; in assay [4] it was 0.294 µM; in assay [5] it was 2.88 µM; in assay [6], 1.73 µM. Further, the GI50 in assay [7] was 1.36 µM. For the same molecule, the TGI in assay [1] was 16.6 µM; in assay [2], 8.86 µM; in assay [3] it was 11.9 µM; in assay [4] it was 10.2 µM; in assay [5], 9.85 µM; in assay [6], 5.87 µM. This molecule displayed a TGI in assay [7] of 6.39 µM.

As to `Cc1cc(=O)oc2cc(OCc3c(F)cccc3Cl)ccc12`, the TGI in assay [1] is more than 100 µM; in assay [2], more than 100 µM; in assay [4], 3.5 µM; in assay [5] it was 52.9 µM; in assay [6], more than 100 µM; in assay [7], more than 100 µM.

Source of the values: PubChem BioAssay (NCI).
